For the experiment, the target named is T1, GPR23 (Homo sapiens, UniProt Q99677).
T1 construct: gene LPAR4; native receptor in U87 glioma cell membranes; control vs GPR23-siRNA silenced
The experiment can be described thus: [3H]-guanine radioligand saturation binding on U87 membranes; Bmax falls on GPR23 silencing.

Molecules are shown by their SMILES.

T1 sequence (Q99677 whole entry): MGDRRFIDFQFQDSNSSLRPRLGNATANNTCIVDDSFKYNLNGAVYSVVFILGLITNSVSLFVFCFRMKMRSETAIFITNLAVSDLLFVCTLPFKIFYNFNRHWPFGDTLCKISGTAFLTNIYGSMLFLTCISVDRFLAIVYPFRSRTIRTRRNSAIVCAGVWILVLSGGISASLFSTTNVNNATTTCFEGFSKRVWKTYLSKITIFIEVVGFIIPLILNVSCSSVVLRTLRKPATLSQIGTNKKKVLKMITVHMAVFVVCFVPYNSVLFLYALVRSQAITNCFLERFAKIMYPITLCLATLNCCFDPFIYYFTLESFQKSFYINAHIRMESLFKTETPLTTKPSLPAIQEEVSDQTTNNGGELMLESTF

Turning to `Nc1nc2nc[nH]c2c(=O)[nH]1` [GUA, guanine], the dissociation constant (Kd) was 29.4 ± 4.07 nM.

These data come from publication PMC9527276, “Guanine inhibits the growth of human glioma and melanoma cell lines by interacting with GPR23” (Frontiers in Pharmacology, 2022).
